In ChEMBL document CHEMBL4251627, “Structural and biological characterization of new hybrid drugs joining an HDAC inhibitor to different NO-donors” (Eur J Med Chem, 2018):
Active and inactive are the calls of the source. The rule behind the calls is not given here.

Tests used:
[1] = biological target: Histone deacetylase (Homo sapiens) (UniProt Q13547+O15379+Q9UBN7+Q92769+Q9UQL6+Q8WUI4+Q9BY41+Q96DB2+P56524+Q9UKV0+Q969S8); assay: Inhibition of HDAC in human HaCaT cells at 10 uM using acetylated lysine side chain as substrate incubated for 1 hr by colorimetric detection based assay relative to control; type: cell-based
[2] = Drug metabolism in human HaCaT cells assessed as induction of NO release at 10 uM after 1 hr by DAF-2D-based FACS analysis; type: ADME, cell-based
[3] = Drug metabolism in human HaCaT cells assessed as induction of NO release at 50 to 100 uM after 1 hr by DAF-2D-based FACS analysis; type: ADME, cell-based
[4] = (§1) Activation of soluble guanylyl cyclase in Wistar rat aortic strips assessed as dilation of L-phenylephrine-induced contraction administered 5 mins before contraction by isometric transducer analysis
[5] = test system: Rattus norvegicus; assay: as §1
[6] = Activation of soluble guanylyl cyclase in Wistar rat aortic strips assessed as dilation of L-phenylephrine-induced contraction administered 5 mins before contraction in presence of ODQ by isometric transducer analysis
[7] = test system: HaCaT; assay: Cytotoxicity against human HaCaT cells assessed as increase in dead cells 0.1 to 100 uM after 72 hrs by Trypan Blue-based assay; type: cell-based
[8] = test system: C2C12; assay: Cytotoxicity against mouse C2C12 cells assessed as increase in dead cells 0.5 to 10 uM after 72 hrs by Trypan Blue-based assay; type: cell-based; conditions: c2c12, 72 h
[9] = biological target: T1, Histone deacetylase 2 (Homo sapiens, UniProt Q92769); assay: Induction of HDAC2 S-nitrosylation in human HaCaT cells after 1 hr by immunoprecipitation and Western blot analysis; type: cell-based
T1 sequence (Q92769 whole entry): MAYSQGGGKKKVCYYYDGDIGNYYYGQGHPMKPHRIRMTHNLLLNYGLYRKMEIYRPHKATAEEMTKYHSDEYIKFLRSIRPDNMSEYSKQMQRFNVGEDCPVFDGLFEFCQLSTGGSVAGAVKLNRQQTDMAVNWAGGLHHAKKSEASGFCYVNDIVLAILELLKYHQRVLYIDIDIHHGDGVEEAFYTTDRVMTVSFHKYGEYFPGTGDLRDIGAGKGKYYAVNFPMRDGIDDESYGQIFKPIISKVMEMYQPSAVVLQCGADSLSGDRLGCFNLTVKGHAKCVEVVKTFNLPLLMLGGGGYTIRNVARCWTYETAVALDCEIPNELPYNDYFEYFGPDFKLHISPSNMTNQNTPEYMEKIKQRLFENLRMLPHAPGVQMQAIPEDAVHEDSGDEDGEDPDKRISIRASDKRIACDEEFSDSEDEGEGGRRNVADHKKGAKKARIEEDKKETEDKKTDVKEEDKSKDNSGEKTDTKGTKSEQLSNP

[10] = biological target: Histone deacetylase 1 (Homo sapiens, UniProt Q13547); assay: Inhibition of human FLAG-tagged HDAC1 expressed in HEK293T cells using acetylated lysine side chain as substrate after 1 hr by colorimetric detection based assay
Sequence of Histone deacetylase 1 (Q13547 whole entry): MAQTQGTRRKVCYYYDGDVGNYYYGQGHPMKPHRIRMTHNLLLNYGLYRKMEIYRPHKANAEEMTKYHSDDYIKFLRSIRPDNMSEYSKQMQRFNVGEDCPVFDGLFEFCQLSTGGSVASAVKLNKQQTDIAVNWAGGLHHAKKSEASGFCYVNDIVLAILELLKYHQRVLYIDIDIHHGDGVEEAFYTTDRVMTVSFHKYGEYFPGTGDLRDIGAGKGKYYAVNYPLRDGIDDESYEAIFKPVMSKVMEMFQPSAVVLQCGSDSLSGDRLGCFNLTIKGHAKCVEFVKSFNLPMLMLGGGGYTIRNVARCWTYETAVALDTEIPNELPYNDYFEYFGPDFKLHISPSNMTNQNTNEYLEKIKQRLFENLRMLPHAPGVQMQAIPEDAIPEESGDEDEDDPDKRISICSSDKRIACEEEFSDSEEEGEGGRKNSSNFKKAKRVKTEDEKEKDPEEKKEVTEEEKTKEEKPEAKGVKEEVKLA

[11] = biological target: T1, Histone deacetylase 2; assay: Inhibition of FLAG-tagged HDAC2 (unknown origin) expressed in HEK293T cells using acetylated lysine side chain as substrate after 1 hr by colorimetric detection based assay; type: cell-based
[12] = biological target: Histone deacetylase 3 (Homo sapiens, UniProt O15379); assay: Inhibition of human FLAG-tagged HDAC3 expressed in HEK293T cells using acetylated lysine side chain as substrate after 1 hr by colorimetric detection based assay; type: cell-based
Sequence of Histone deacetylase 3 (O15379 whole entry): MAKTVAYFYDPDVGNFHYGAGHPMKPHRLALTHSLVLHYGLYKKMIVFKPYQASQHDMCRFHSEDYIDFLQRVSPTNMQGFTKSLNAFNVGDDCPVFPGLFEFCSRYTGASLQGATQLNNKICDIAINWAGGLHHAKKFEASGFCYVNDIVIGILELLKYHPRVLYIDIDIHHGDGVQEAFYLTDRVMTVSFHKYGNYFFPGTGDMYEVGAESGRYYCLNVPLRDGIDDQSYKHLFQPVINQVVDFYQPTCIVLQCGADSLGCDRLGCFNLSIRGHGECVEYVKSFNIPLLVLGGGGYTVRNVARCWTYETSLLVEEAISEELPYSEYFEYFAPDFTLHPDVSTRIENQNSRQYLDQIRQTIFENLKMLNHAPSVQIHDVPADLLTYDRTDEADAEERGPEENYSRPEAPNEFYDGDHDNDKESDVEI

[13] = biological target: Histone deacetylase 4 (Homo sapiens) (UniProt P56524); assay: Induction of HDAC4 nuclear translocation in human HaCaT cells at 10 uM after 1 hr by immunofluorescence analysis; type: cell-based
Sequence of Histone deacetylase 4 (Homo sapiens) (P56524 whole entry): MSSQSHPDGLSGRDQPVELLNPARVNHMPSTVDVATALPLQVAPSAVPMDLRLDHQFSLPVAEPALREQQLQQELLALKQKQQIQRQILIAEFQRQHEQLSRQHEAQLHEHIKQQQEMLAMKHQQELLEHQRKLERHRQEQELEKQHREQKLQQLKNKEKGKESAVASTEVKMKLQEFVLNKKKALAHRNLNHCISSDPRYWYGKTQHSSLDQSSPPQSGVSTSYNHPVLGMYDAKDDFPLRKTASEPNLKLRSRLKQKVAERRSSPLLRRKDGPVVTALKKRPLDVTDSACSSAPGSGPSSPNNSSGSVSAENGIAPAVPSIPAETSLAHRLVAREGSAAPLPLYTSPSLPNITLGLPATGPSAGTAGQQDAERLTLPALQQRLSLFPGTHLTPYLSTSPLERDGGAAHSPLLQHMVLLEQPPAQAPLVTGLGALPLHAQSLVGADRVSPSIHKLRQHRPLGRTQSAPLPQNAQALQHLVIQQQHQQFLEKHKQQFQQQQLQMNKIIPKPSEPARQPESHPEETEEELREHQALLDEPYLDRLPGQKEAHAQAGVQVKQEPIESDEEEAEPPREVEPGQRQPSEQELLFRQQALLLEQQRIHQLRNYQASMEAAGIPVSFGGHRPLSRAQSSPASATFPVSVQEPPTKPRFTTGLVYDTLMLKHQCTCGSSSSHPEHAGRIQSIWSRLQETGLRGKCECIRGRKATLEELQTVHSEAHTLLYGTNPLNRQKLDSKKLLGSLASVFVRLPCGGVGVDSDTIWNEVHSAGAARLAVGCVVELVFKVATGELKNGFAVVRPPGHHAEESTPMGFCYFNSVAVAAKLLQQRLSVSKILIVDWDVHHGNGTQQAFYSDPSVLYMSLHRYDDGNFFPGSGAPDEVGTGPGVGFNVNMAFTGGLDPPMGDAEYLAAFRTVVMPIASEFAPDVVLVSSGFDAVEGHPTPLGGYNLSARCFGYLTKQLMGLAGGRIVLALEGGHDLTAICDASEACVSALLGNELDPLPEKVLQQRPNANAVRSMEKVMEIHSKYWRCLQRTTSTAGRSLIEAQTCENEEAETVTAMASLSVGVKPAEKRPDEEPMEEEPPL

[14] = biological target: Histone deacetylase 5 (Homo sapiens) (UniProt Q9UQL6); assay: Induction of HDAC5 nuclear translocation in human HaCaT cells at 10 uM after 1 hr by immunofluorescence analysis; type: cell-based
Sequence of Histone deacetylase 5 (Homo sapiens) (Q9UQL6 whole entry): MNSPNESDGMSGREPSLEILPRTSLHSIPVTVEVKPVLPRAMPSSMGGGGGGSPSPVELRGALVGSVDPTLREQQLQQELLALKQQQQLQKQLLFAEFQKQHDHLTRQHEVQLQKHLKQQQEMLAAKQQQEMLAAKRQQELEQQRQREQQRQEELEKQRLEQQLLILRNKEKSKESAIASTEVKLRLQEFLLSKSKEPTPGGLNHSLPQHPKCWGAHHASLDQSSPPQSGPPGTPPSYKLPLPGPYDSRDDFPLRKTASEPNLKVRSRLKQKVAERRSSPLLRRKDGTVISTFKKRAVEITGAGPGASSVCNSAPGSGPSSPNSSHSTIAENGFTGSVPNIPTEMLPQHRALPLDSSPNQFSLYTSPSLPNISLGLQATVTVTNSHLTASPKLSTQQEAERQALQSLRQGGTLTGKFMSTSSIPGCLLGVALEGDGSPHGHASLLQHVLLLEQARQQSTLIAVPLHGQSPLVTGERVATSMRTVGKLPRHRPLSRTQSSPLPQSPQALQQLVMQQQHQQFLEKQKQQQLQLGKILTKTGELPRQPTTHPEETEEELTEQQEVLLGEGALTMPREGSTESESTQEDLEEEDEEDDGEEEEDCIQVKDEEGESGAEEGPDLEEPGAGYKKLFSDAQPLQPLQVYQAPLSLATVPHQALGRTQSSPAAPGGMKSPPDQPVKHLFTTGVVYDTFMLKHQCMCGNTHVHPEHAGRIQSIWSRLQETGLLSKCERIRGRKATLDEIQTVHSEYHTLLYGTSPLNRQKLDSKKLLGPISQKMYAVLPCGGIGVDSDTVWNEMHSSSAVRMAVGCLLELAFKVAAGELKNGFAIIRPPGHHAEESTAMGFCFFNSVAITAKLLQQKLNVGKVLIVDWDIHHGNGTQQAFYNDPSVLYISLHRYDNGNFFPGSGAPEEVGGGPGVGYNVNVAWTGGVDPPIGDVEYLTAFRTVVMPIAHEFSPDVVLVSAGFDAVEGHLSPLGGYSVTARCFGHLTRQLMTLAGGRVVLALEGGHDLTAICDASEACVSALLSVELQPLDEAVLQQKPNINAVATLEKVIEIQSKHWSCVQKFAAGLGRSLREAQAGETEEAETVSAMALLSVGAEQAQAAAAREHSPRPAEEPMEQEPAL

[15] = test system: C2C12; assay: Induction of skeletal muscle differentiation in mouse C2C12 cells assessed as myotube formation by measuring MHC expression at 0.5 uM after 5 days by DAPI-staining based microscopy; type: functional, cell-based
[16] = test system: C2C12; assay: Induction of skeletal muscle differentiation in mouse C2C12 cells assessed as induction of multinucleated fibers at 0.5 uM after 5 days by DAPI-staining based microscopy; type: functional, cell-based
[17] = test system: C2C12; assay: Induction of skeletal muscle differentiation in mouse C2C12 cells assessed as increase in myoblast fusion by measuring MyoM expression at 0.5 uM after 5 days by qRT-PCR analysis; type: functional, cell-based
[18] = Drug metabolism in human HaCaT cells assessed as induction of NO release at 10 uM by DAF-2D-based FACS analysis; type: ADME, cell-based; conditions: TDE = time-dependent effect

Row | Compound | inhibition [1] | Drug metabolism [2] | Drug metabolism [3] | EC50 [4] | Activity [5] | EC50 [6] | Activity [9] | IC50 [10] | IC50 [11] | IC50 [12] | Activity [13] | Activity [14] | Drug metabolism [18] | Activity [7] | Activity [8] | Activity [15] | Activity [16] | Activity [17]
1 | Nc1ccccc1NC(=O)c1ccc(CNC(=O)OCc2cccnc2)cc1 [ENTINOSTAT] |  |  |  |  |  |  |  |  |  |  |  |  |  | Toxic | Toxic |  |  | 
2 | CN(Cc1ccc(COC(=O)NCc2ccc(C(=O)Nc3ccccc3N)cc2)cn1)Cc1no[n+]([O-])c1C#N | 20 to 50% |  |  | 24 nM | Dose-dependent effect | 0.96 µM | Active |  |  |  |  |  |  |  |  |  |  | 
3 | Nc1ccccc1NC(=O)c1ccc(CNC(=O)OCc2ccc(OCCOc3no[n+]([O-])c3-c3ccccc3)nc2)cc1 | 20 to 50% | Metabolite_Detected |  | 3400 nM | Dose-dependent effect | > 100 µM |  |  |  |  |  |  |  |  |  |  |  | 
4 | CN(CCCO[N+](=O)[O-])Cc1ccc(COC(=O)NCc2ccc(C(=O)Nc3ccccc3N)cc2)cn1.Cl.Cl.Cl | 20 to 50% | Metabolite_Notdetected |  | 2600 nM | Dose-dependent effect | 44 µM |  |  |  |  |  |  |  |  |  |  |  | 

Now from value to compound, other results behind:

Row | inhibition [1] | Drug metabolism [2] | Drug metabolism [3] | EC50 [4] | Activity [5] | EC50 [6] | Activity [9] | IC50 [10] | IC50 [11] | IC50 [12] | Activity [13] | Activity [14] | Drug metabolism [18] | Compound | Activity [7] | Activity [8] | Activity [15] | Activity [16] | Activity [17]
5 | 20 to 50% | Metabolite_Notdetected | Metabolite_Notdetected | 3400 nM | Dose-dependent effect | 63 µM |  |  |  |  |  |  |  | CN(Cc1ccc(COC(=O)NCc2ccc(C(=O)Nc3ccccc3N)cc2)cn1)Cc1no[n+]([O-])c1C(N)=O.Cl.Cl.Cl |  |  |  |  | 
6 |  |  |  | 4.5 nM | Dose-dependent effect | 0.43 µM |  |  |  |  |  |  |  | COCCOc1no[n+]([O-])c1S(=O)(=O)c1ccccc1 |  |  |  |  | 
7 | 20 to 50% | Metabolite_Detected |  | 290 nM | Dose-dependent effect | 11 µM | Active | 1040 nM | 390 nM | 1220 nM | Active | Active |  | CN(CCCCC(CO[N+](=O)[O-])O[N+](=O)[O-])Cc1ccc(COC(=O)NCc2ccc(C(=O)Nc3ccccc3N)cc2)cn1.Cl.Cl.Cl (centres undefined) | Non-Toxic | Non-Toxic | Active | Active | Active
8 |  |  |  | 800 nM | Dose-dependent effect | > 100 µM |  |  |  |  |  |  |  | CN(C)CCCCC(CO[N+](=O)[O-])O[N+](=O)[O-] (centres undefined) |  |  |  |  | 
9 | 20 to 50% |  |  | 31 nM | Dose-dependent effect | 0.35 µM | Active | 1020 nM | 370 nM | 1190 nM | Active | Active | Tde | Nc1ccccc1NC(=O)c1ccc(CNC(=O)OCc2ccc(OCCOc3no[n+]([O-])c3S(=O)(=O)c3ccccc3)nc2)cc1 | Non-Toxic | Non-Toxic | Active |  | 
